Data on three molecules can be found in patent US20050203071A1, “Use of carbon-2-modified-19-nor-vitamin d analogs to induce the formation of new bone” (priority 2003, published 2005).

For one assay, the system named is ovariectomized rats. The note with it: ovariectomized animal/rats, cited from earlier work.
The test system of assay [1] is human osteoblast cultures. As to the kind of experiment: bone nodule formation in vitro in human osteoblast cultures (Von Kossa stain). The settings on record: for stimulation of osteoblast cultures to form mineralized bone, Von Kossa stain (FIG. 2): different concentrations, human osteoblast cultures. The class given is cell-based. The source says:
Human bone samples discarded after surgical procedures from patients undergoing hip/knee replacement surgeries are obtained under an approved IRB protocol (Protocol #2001-055) and processed as described below. These bone pieces are otherwise routinely discarded as waste material during surgery.
The bone pieces are thoroughly washed and cleaned under sterile conditions using phosphate-buffered saline (PBS). These pieces are then cut to obtain smaller pieces (1-2 mm^3) and subjected to enzymatic digestion process to isolate osteoblasts as described below.
Osteoblastic cells are obtained from the bone pieces by collagenase digestion. Briefly, the bone samples are washed twice in PBS and dissected in about 1 mm^3 size fragments which are then sequentially digested in trypsin (1 mg/mL) for ten minutes, followed by dispase (2 mg/mL) for twenty minutes, and bacterial collagenase [Collagenase A] (3 mg/mL) twice for thirty minutes in PBS at 37° C. in a water bath. Cells released by collagenase digestion are then washed, counted and grown to sub-confluence in 25 cm^2 cell culture flasks in 1:1 Ham's F12/Dulbecco's modification of Eagle's medium (DMEM) supplemented with 10% fetal bovine serum. Cells are cultured at 37° C. in a humidified atmosphere of 5% CO2/95% air. Medium changes are made every 2-3 days and cells are cultured until they are 80% confluent. Cells are then trypsinized, washed and frozen from early passages for evaluation using techniques as described below.
In order to evaluate the ability of osteoblasts to form bone nodules in vitro, cells are cultured in 6 well plates at 1-3×10^5 cells/well. Cells are cultured in the presence of either 1,25-(OH)2D3 or vitamin D analogs at various doses for 7 days. Complete medium changes are carried out twice during the 7-day period and the medium is supplemented with fresh compounds (either 1,25-(OH)2D3 or 2-methylene-19-nor-(20S)-1α,25-dihydroxyvitamin D3—2MD) during each medium change. At days 10 and 13, complete medium changes are carried out and the compounds are replaced by treatment with ascorbic acid (50 μg/ml) and β-glycerol phosphate (10 mM). A third dose of ascorbic acid and β-glycerol phosphate is added to the cultures on day 15 if needed. Following the culture period, cells are stained using the Von Kossa technique. Briefly, cells are stained with 5% silver nitrate for 30 minutes in the dark, rinsed with distilled water, reduced with sodium carbonate/formaldehyde solution for 2 minutes and washed under tap water for 10 minutes. The cells are then stained with methyl green pyronin for 20 minutes, washed with water followed by two washes of absolute alcohol. […] Bone nodule formation in vitro can be assessed quantitatively by various published procedures.

Molecules are shown by their SMILES. Read-outs that look alike come from different tables or passages of the source.

For `CC1C(O)CC(=CC=C2CCC[C@]3(C)[C@@H]([C@@H](C)CCCC(C)(C)O)CC[C@@H]23)CC1O` (stereo partly drawn) [2α-methyl-19-nor-20S-1,25-(OH)2D3, 2α-methyl-19-nor-20(S)-1α,25-dihydroxyvitamin D3], the bone mass result in the assay on ovariectomized rats is given as “increase bone mass”.

Take `C=C1[C@H](O)CC(=C/C=C2\CCC[C@]3(C)[C@@H]([C@@H](C)CCCC(C)(C)O)CC[C@@H]23)C[C@H]1O` [2MD, 2-methylene-19-nor-(20S)-1α,25-dihydroxyvitamin D3]: the “degree of new bone formation” value in assay [1] (concentration of 10^−12 molar) is given as “saturating degree of new bone formation”. Besides, the “stimulation of osteoblast cultures to form mineralized bone, Von Kossa stain (FIG. 2)” value in assay [1] is “unique and strong action”. The bone mass result is recorded as “markedly stimulate bone mass accumulation” in the assay on ovariectomized rats and “increase bone mass” in the assay on ovariectomized rats (listed as 2-methylene-19-nor-20S-1,25-(OH)2D3).

As to `C=C1/C(=C\C=C2/CCC[C@]3(C)[C@@H]([C@H](C)CCCC(C)(C)O)CC[C@@H]23)C[C@@H](O)C[C@@H]1O` [1,25-(OH)2D3, 1α,25-dihydroxyvitamin D3, reference compound], in assay [1] (10^−8 molar, after 14 days of incubation), the “change in osteoblast cultures / formation of mineralized bone (FIG. 1)” value is recorded as “very little change”. In assay [1], the “stimulation of osteoblast cultures to form mineralized bone, Von Kossa stain (FIG. 2)” value is listed as “does not produce this effect”.
